Experimental findings from patent US11576382B2, “Naphthalene isoxazoline compounds for controlling invertebrate pests” (FMC Corporation, priority 2018, dated 2023) are described below.

Common to all, as to assay type: in vivo
Test [1] relates to potato leafhopper (Empoasca fabae (Harris)). As to the kind of experiment: Test D: control of potato leafhopper through contact and/or systemic means. As to conditions: 144 h. On the procedure:
(§1) Formulation and Spray Methodology for Tests A-H
(§2) Test compounds were formulated using a solution containing 10% acetone, 90% water and 300 ppm Activator 90® non-ionic surfactant (Loveland Products, Loveland, Colo., USA). The formulated compounds were applied in 1 mL of liquid through an atomizer nozzle positioned 1.27 cm (0.5 inches) above the top of each test unit. Test compounds were sprayed at the rates indicated, and each test was replicated three times.
For evaluating control of potato leafhopper (Empoasca fabae (Harris)) through contact and/or systemic means, the test unit consisted of a small open container with a 5-6-day-old Soleil bean plant (primary leaves emerged) inside. White sand was added to the top of the soil, and one of the primary leaves was excised prior to application of the test compound.
Test compounds were formulated and sprayed at 250, 50, 10 and 2 ppm. After spraying of the formulated test compound, the test units were allowed to dry for 1 hour before they were post-infested with 5 potato leafhoppers (18-to-21-day-old adults). A black, screened cap was placed on the top of the test unit, and the test units were held for 6 days in a growth chamber at 20° C. and 70% relative humidity. Each test unit was then visually assessed for insect mortality.

In test [2] the test system is cotton melon aphid (Aphis gossypii (Glover)). The test is described as follows: Test F: control of cotton melon aphid through contact and/or systemic means. As to conditions: 144 h. On the procedure:
as §1, §2
For evaluating control of cotton melon aphid (Aphis gossypii (Glover)) through contact and/or systemic means, the test unit consisted of a small open container with a 5-day-old okra plant inside. This was pre-infested with 30-40 insects on a piece of leaf according to the cut-leaf method, and the soil of the test unit was covered with a layer of sand.
Test compounds were formulated and sprayed at 250, 50 and 10 ppm. After spraying, the test units were maintained in a growth chamber for 6 days at 19° C. and 70% relative humidity. Each test unit was then visually assessed for insect mortality.

In test [3] the test system is sweetpotato whitefly (Bemisia tabaci (Gennadius)). As to the kind of experiment: Test G: control of sweetpotato whitefly through contact and/or systemic means. The settings on record: in Gossypium hirsutum, 312 h. On the procedure:
as §1, §2
For evaluating control of the sweetpotato whitefly (Bemisia tabaci (Gennadius)) through contact and/or systemic means, the test unit consisted of a small open container with a 12-14-day-old cotton plant inside. Prior to the spray application, both cotyledons were removed from the plant, leaving one true leaf for the assay. Adult whiteflies were allowed to lay eggs on the plant and then were removed from the test unit. Cotton plants infested with at least 15 eggs were submitted to the test for spraying.
Test compounds were formulated and sprayed at 250, 50, and 10 ppm. After spraying, the test units were allowed to dry for 1 hour. The cylinders were then removed, and the units were taken to a growth chamber and held for 13 days at 28° C. and 50-70% relative humidity. Each test unit was then visually assessed for insect mortality.

Test [4] concerns green peach aphid (Myzus persicae (Sulzer)). As to the kind of experiment: Test E: control of green peach aphid through contact and/or systemic means. The settings on record: in Raphanus sativus, 144 h. On the procedure:
as §1, §2
For evaluating control of green peach aphid (Myzus persicae (Sulzer)) through contact and/or systemic means, the test unit consisted of a small open container with a 12-15-day-old radish plant inside. This was pre-infested by placing on a leaf of the test plant 30-40 aphids on a piece of leaf excised from a culture plant (cut-leaf method). The aphids moved onto the test plant as the leaf piece desiccated. After pre-infestation, the soil of the test unit was covered with a layer of sand.
Test compounds were formulated and sprayed at 250, 50 and 10 ppm. After spraying of the formulated test compound, each test unit was allowed to dry for 1 hour and then a black, screened cap was placed on top. The test units were held for 6 days in a growth chamber at 19-21° C. and 50-70% relative humidity. Each test unit was then visually assessed for insect mortality.

What is called mortality is the percentage killed. Read a high mortality as a strong lethal effect. Consider `C[C@@H](NC(=O)c1ccc(C2=NOC(c3cc(Cl)c(F)c(Cl)c3)(C(F)(F)F)C2)c2ccccc12)C(N)=O` (stereo partly drawn) [Compound 1, N-[(1R)-2-amino-1-methyl-2-oxoethyl]-4-[5-(3,5-dichloro-4-fluorophenyl)-4,5-dihydro-5-(trifluoromethyl)-3-isoxazolyl]-1-naphthalenecarboxamide], for which, in test [1], the mortality at 50 ppm is ≥ 80% and the mortality at 250 ppm was ≥ 80%. The mortality at 250 ppm in test [2] was ≥ 80%.
Regarding `O=C(NCc1ccccn1)c1ccc(C2=NOC(c3cc(Cl)c(F)c(Cl)c3)(C(F)(F)F)C2)c2ccccc12` (stereo not drawn) [Compound 15, 4-[5-(3,5-dichloro-4-fluorophenyl)-4,5-dihydro-5-(trifluoromethyl)-3-isoxazolyl]-N-(2-pyridinylmethyl)-1-naphthalenecarboxamide], in test [1], the mortality at 2 ppm was ≥ 80%, the mortality at 10 ppm is ≥ 80% and the mortality at 50 ppm is ≥ 80%. In test [3], the mortality at 50 ppm is ≥ 70%.
Take `CON=CNC(=O)c1ccc(C2=NOC(c3cc(Cl)c(F)c(Cl)c3)(C(F)(F)F)C2)c2ccccc12` (stereo not drawn) [Compound 33, 4-[5-(3,5-dichloro-4-fluorophenyl)-4,5-dihydro-5-(trifluoromethyl)-3-isoxazolyl]-N-[(methoxyimino)methyl]-1-naphthalenecarboxamide]: the values for the mortality at 2 ppm in test [1] and in test [3] were ≥ 80% and ≥ 70%, respectively. The mortality at 10 ppm in test [1] was ≥ 80%; in test [2], ≥ 80%; in test [3] it was ≥ 70%. Also, the mortality at 50 ppm in test [1] was ≥ 80%; in test [2] it was ≥ 80%; in test [4], ≥ 80%; in test [3], ≥ 70%.
Turning to `COC(=O)CNC(=O)c1ccc(C2=NOC(c3cc(Cl)c(F)c(Cl)c3)(C(F)(F)F)C2)c2ccccc12` (stereo not drawn) [Compound 35, N-[[4-[5-(3,5-dichloro-4-fluorophenyl)-4,5-dihydro-5-(trifluoromethyl)-3-isoxazolyl]-1-naphthalenyl]carbonyl]glycine methyl ester], the mortality at 250 ppm in test [1], in test [2] and in test [4] was ≥ 80% in each case. Also, the mortality at 50 ppm in test [2] and in test [4] was ≥ 80% in each case.
